# Read-outs that look alike come from different tables or passages of the source.
# Key:
# Cryptosporidium parvum = experiment: qRT-PCR assay of the growth of C. parvum in vitro in HCT-8 host cells (primary and secondary screening, EC50); assay type: cell-based; details: for Inhibition (%): primary screening at 10 uM; for % Inhibition (3.3 uM): secondary screening at 3.3 uM
# [1] = primary screening at 10 uM, from Hs18S ΔCT
# [2] = primary screening at 10 uM, treated vs control
Structure (SMILES),Cytotoxicity (%) (HCT-8 host cells (Hs18S); [1]),Hs18S ΔCT (HCT-8 host cells (Hs18S); [2]),Inhibition (%) (Cryptosporidium parvum),Hs18S ΔCT (HCT-8 host cells (Hs18S)),Cytotoxicity (%) (HCT-8 host cells (Hs18S); 10 µM),% Inhibition (3.3 uM) (Cryptosporidium parvum)
"C[C@]12CCC(=O)C[C@@H]1CC[C@@H]1[C@@H]2CC[C@]2(C)C(=O)CC[C@@H]12 [5alpha-ANDROSTAN-3,17-DIONE]",-0.1%,0.00,-13.88%,–,–,–
CC(C)CCC[C@@H](C)[C@H]1CC[C@H]2[C@@H]3CC[C@H]4C[C@@H](O)CC[C@]4(C)[C@H]3CC[C@]12C [5alpha-CHOLESTANOL],-2.4%,-0.03,-23.23%,–,–,–
"O=c1cc(-c2ccc(O)cc2)oc2ccc(O)cc12 [6,4'-DIHYDROXYFLAVONE]",17.9%,0.28,28.18%,–,–,–
"COc1cc2occ(-c3ccc(OC)c(OC)c3OC)c(=O)c2cc1OC [6,7,2',3',4'-PENTAMETHOXYISOFLAVONE]",-30.1%,-0.38,39.55%,–,–,–
"O=c1cc(-c2ccccc2O)oc2cc(O)ccc12 [7,2'-DIHYDROXYFLAVONE]",12.6%,0.19,-16.96%,–,–,–
"COc1ccc(-c2coc3cc(OC)ccc3c2=O)cc1 [7,4'-DIMETHOXYISOFLAVONE]",3.0%,0.04,1.31%,–,–,–
CC(=O)OCC1=C(C(=O)O)N2C(=O)[C@@H](N)[C@H]2SC1 [7-AMINOCEPHALOSPORANIC ACID],12.1%,0.19,-11.44%,–,–,–
CC(=O)O[C@H]1C[C@@H](OC(C)=O)C(C)(C)C2CC(=O)[C@]3(C)C(CC[C@@]4(C)[C@H](c5ccoc5)OC(=O)[C@H]5O[C@]543)[C@]21C (some centres unmarked) [7-DEACETOXY-7-OXOKHIVORIN],13.5%,0.21,40.16%,–,–,–
CC(=O)O[C@@H]1C[C@]2(C)[C@@H](C(C)=O)CC[C@H]2[C@@H]2CCC3=CC(=O)CC[C@]3(C)[C@H]21 [11a-ACETOXYPROGESTERONE],-16.6%,-0.22,10.83%,–,–,–
CC(=O)Oc1ccc2c(C)cc(=O)oc2c1 [ACETYL HYMETOCHROME],-4.5%,-0.06,-35.81%,–,–,–
CNCC(=O)c1ccc(O)c(O)c1.Cl [ADRENOLONE HYDROCHLORIDE],-16.6%,-0.22,26.43%,–,–,–
CCCCCCCCCCCCCCCCC(C(=O)O)C(O)(CC(=O)O)C(=O)O (centres unmarked) [AGARIC ACID],18.9%,0.30,-4.50%,–,–,–
O=C(O)CCCCCCCC(O)C(O)CCCCCCO (centres unmarked) [ALEURETIC ACID],–,–,36.82%,0.24,15.2,–
"C[C@]12C=CC(=O)C=C1CC[C@@H]1[C@@H]2CC[C@]2(C)C(=O)CC[C@@H]12 [ANDROSTA-1,4-DIEN-3,17-DIONE]",0.7%,0.01,15.07%,–,–,–
Br.CN1[C@H]2C[C@H](OC(=O)[C@H](CO)c3ccccc3)C[C@@H]1[C@@H](O)C2 [ANISODAMINE HYDROBROMIDE],-32.6%,-0.41,5.51%,–,–,–
COc1cc2c(cc1OC)-c1c(oc3cc(O)cc(O)c3c1=O)CO2 [APOTOXICAROL],10.7%,0.16,1.64%,–,–,–
CN[C@@H]1[C@@H](O[C@H]2O[C@H](CO)[C@@H](N)[C@H](O)[C@H]2O)O[C@H]2C[C@@H](N)[C@@H](O[C@H]3[C@H](O)[C@@H](O)[C@H](N)C[C@@H]3N)O[C@@H]2[C@@H]1O.O=S(=O)(O)O [APRAMYCIN SULFATE],-3.1%,-0.04,42.68%,–,–,–
OC[C@@H](O)C(O)[C@H](O)CO [ARABITOL],-2.6%,-0.04,8.73%,–,–,–
CC(C)(O)[C@@H]1CC[C@](C)([C@H]2[C@@H](O)C[C@@]3(C)[C@@H]4C[C@H](O[C@@H]5O[C@H](CO)[C@@H](O)[C@H](O)[C@H]5O)[C@H]5C(C)(C)[C@@H](O[C@@H]6OC[C@@H](O)[C@H](O)[C@H]6O)CC[C@@]56C[C@@]46CC[C@]23C)O1 [ASTRAGALOSIDE IV],-14.1%,-0.19,-18.98%,–,–,–
C=CCCCCCCCCCCCC(O)CC(O)COC(C)=O (centres unmarked) [AVOCADENE ACETATE],-38.4%,-0.47,-0.39%,–,–,–
C=CCCCCCCCCCCCc1ccco1 [AVOCADENOFURAN],-32.5%,-0.41,-21.47%,–,–,–
COc1ccc(-c2coc3cc(O)cc(O)c3c2=O)cc1 [BIOCHANIN A],6.9%,0.10,14.14%,–,–,–
O=C(O)CC[N+](=O)[O-] [BOVINOCIDIN],-25.1%,-0.32,41.04%,–,–,–

Structure (SMILES),Cytotoxicity (%) (HCT-8 host cells (Hs18S); [1]),Hs18S ΔCT (HCT-8 host cells (Hs18S); [2]),Inhibition (%) (Cryptosporidium parvum),Hs18S ΔCT (HCT-8 host cells (Hs18S)),Cytotoxicity (%) (HCT-8 host cells (Hs18S); 10 µM),% Inhibition (3.3 uM) (Cryptosporidium parvum)
CC1=CC2C(C(C)C)CCC(C)(O)C2CC1 (centres unmarked) [CADIN-4-EN-10-OL],-34.1%,-0.42,-28.21%,–,–,–
"CC1=C(/C=C/C(C)=C/C=C/C(C)=C/C=C/C=C(C)/C=C/C=C(C)/C=C/C2=C(C)C(=O)CCC2(C)C)C(C)(C)CCC1=O [CANTHAXANTHIN, CANTHAXANTHIN (euglenanone)]",–,–,52.72%,–,-19.8%,–
C[N+](C)(C)CC(O)CC(=O)O.[Cl-] (stereo not drawn) [CARNITINE (dl) HYDROCHLORIDE],-73.4%,-0.79,-3.41%,–,–,–
OC[C@H]1O[C@@H](O[C@H]2[C@H](O)[C@@H](O)[C@H](O)O[C@@H]2CO)[C@H](O)[C@@H](O)[C@@H]1O [CELLOBIOSE (D[+])],–,0.91,-5.56%,–,–,–
CC(C)CCC[C@@H](C)[C@H]1CC[C@H]2[C@@H]3CC[C@H]4CCCC[C@]4(C)[C@H]3CC[C@]12C [CHOLESTANE],12.2%,0.19,13.94%,–,–,–
CC(=O)O[C@H]1CC[C@@]2(C)C(=CC[C@H]3[C@@H]4CC[C@H]([C@H](C)CCCC(C)C)[C@@]4(C)CC[C@@H]32)C1 [CHOLESTERYL ACETATE],-5.8%,-0.08,-22.86%,–,–,–
CC(C)CCC[C@@H](C)[C@H]1CC[C@H]2[C@@H]3CC=C4C[C@@H](OC(=O)c5ccccc5)CC[C@]4(C)[C@H]3CC[C@]12C [CHOLESTERYL BENZOATE],5.3%,0.08,-14.05%,–,–,–
C[N+](C)(C)CCO.[Cl-] [CHOLINE CHLORIDE],–,–,20.98%,0.33,20.6,–
C[C@H](CC(=O)[C@@H]1OC1(C)C)[C@H]1C(=O)C[C@@]2(C)C3=CC[C@H]4C(C)(C)[C@@H](O[C@@H]5OC[C@@H](O)[C@H](O)[C@H]5O)CC[C@@]45C[C@@]35[C@@H](O)C[C@]12C [CIMICIFUGOSIDE H1],69.4%,1.71,58.34%,–,–,–
COc1cc2cc3c4cc(OC)c(OC)cc4cc[n+]3c(C)c2cc1OC.[Cl-] [CORALYNE CHLORIDE],-23.6%,-0.31,-5.22%,–,–,–
C[C@]12CCC(=O)C=C1CC[C@@H]1[C@@H]2C(=O)C[C@@]2(C)[C@H]1CC[C@]2(O)C(=O)CO [CORTISONE],–,-0.17,-10.93%,–,–,–
COC(=O)[C@H]1[C@H]2C[C@H]3c4[nH]c5ccccc5c4CCN3C[C@@H]2CC[C@@H]1O [CORYNANTHINE],-53.1%,-0.61,-58.95%,–,–,–
N[C@@H]1CONC1=O [CYCLOSERINE (D)],-30.0%,-0.38,-10.45%,–,–,–
COc1cc2c(cc1OC)Cc1cc(OC)c(OC)cc1Cc1cc(OC)c(OC)cc1C2 [CYCLOVERATRYLENE],-2.2%,-0.03,83.81%,–,–,-85%
OC[C@H]1O[C@H](O[C@H]2[C@H](O)[C@@H](O)[C@H](O)O[C@@H]2CO)[C@H](O)[C@@H](O)[C@@H]1O [D-(+)-MALTOSE],–,-0.19,55.12%,–,–,–
COc1ccc(-c2cc(=O)c3c(O)c(OC)c(OC)c(OC)c3o2)cc1OC [DEMETHYLNOBILETIN],-4.6%,-0.06,91.41%,–,–,29%
CC(=O)O[C@@H]1C[C@H]2C(C)(C)C(=O)C=C[C@]2(C)[C@H]2CC[C@]3(C)C(=CC(=O)O[C@H]3c3ccoc3)[C@@]21C [DEOXYGEDUNIN],15.4%,0.24,28.62%,–,–,–
CC(=O)O[C@H]1C[C@@H](OC(C)=O)C(C)(C)[C@@H]2C[C@@H](OC(C)=O)[C@@]3(C)C4=CC(=O)O[C@@H](c5ccoc5)[C@]4(C)CC[C@@H]3[C@@]12C [DEOXYKHIVORIN],7.7%,0.11,27.34%,–,–,–
Cl.c1ccc2c(c1)CN1CCCC1=N2 [DEOXYPEGANINE HYDROCHLORIDE],–,–,36.29%,-0.06,-4.6,–
C=C[C@@]1(C)CC(=O)[C@@]2(O)[C@](C)(O1)[C@@H](O)[C@@H](O)C1C(C)(C)CC[C@H](O)[C@@]12C (some centres unmarked) [DESACETYLCOLFORSIN],14.3%,0.22,-6.53%,–,–,–
"CC(=O)[C@H]1CC[C@H]2[C@@H]3CCC4C[C@H](O)CC[C@]4(C)[C@H]3C[C@H](O)[C@]12C (stereo partly drawn) [DIHYDROXY (3alpha,12alpha)PREGNAN-20-ONE]",-29.0%,-0.37,-32.59%,–,–,–
COC(=O)/C(C)=C\CC12OC(C)(C)C3CC(C=C4C(=O)c5c(c(CCC(C)(C)Cl)c6c(c5OC)C5CC(C)(CCC5=C(C)C)O6)OC431)C2=O (centres unmarked) [DIMETHYL GAMBOGINATE],79.7%,2.30,93.45%,–,–,47%

# Reference: paper PMC6736568, “Discovery of Novel Anti-cryptosporidial Activities From Natural Products by in vitro High-Throughput Phenotypic Screening” (Frontiers in Microbiology, 2019)
